In patent US20200071357A1, “ANTIMICROBIAL PEPTIDES” (UNIVERSITETET I TROMSØ - NORGES ARKTISKE UNIVERSITET, priority 2016, published 2020):
Where two headings read alike, the source gives them in different places. Where no end group is shown, it is not given here.

Key:
Assay type in all cases: cell-based
[1] = system: human red blood cells; assay: Haemolytic assay; conditions: for Haemolysis (%) 25 μM: peptide 25 μM; for Haemolysis (%) 25 μM / Haemolysis (%) 200 μM: human red blood cells, one hour at 37° C.; for Haemolysis (%) 200 μM: peptide 200 μM
Procedure: Selected synthesised peptide analogues were also screened for haemolytic activity using human red blood cells as described previously (Sperstad, S. V., et al. (2009) Dev. Comp. Immunol. 33, 583-591). The assay was performed on 96-well U-shaped microtiter plates (Nagle Nunc) with 50 μl peptide sample, 40 μl phosphate-buffered saline (PBS) and 10 μl red blood cells. After one hour of incubation at 37° C. in a shaker, the plate was centrifuged at 200 g for 5 min and the supernatants (60 μl) were carefully transferred to a new flat-bottomed polycarbonate microtiter plate (Nagle Nunc) and the release of haemoglobin (absorbance at 550 nm) was measured on a Synergy H1 multimode reader (BioTek, Vt., USA). Cell suspension added 0.05% Triton X-100 (Sigma-Aldrich, Mo., USA) in PBS served as positive (100% haemolysis) control and cell suspension added PBS served as negative (0% haemolysis, blank) control. The percent haemolysis was calculated using the formula [(Asample-Abaseline)/(Atriton-Abaseline)]×100. The cytotoxic peptide melittin (Sigma-Aldrich) was used as a positive control peptide and for comparison. The experiment was performed in triplicates with peptide concentrations ranging from 200 μM to 1.56 μM in two-fold dilutions.

[2] = system: A. pullulans, Rhodotorula sp. and C. albicans
Procedure: (§1) The synthetic peptides were also screened for antifungal activity against Candida albicans (ATCC 10231), Aureobasidium pullulans and Rhodotorula sp. (the last two were obtained from Professor Arne Tronsmo, The Norwegian University of Life Sciences, As, Norway). The antifungal assay was performed as previously described (Sperstad, S. V., et al. (2009) Dev. Comp. Immunol. 33, 583-591). Briefly, fungal spores were dissolved in potato dextrose broth (Difco, Lawrence, Kans., USA) to a concentration of 4×10^5 spores/ml. The spores (50 μl) were inoculated on 96-well Nunclon™ microtiter plates containing the synthetic peptides (50 μl) dissolved in MQ-H2O. […] The negative (growth) control consisted of medium and fungal solution. The peptides were tested for activity in concentrations ranging from 100 to 0.1 μM in two-fold serial dilutions. All tests were performed in triplicates.

[3] = system: Staphylococcus aureus (Sa, ATCC 9144)
Procedure: (§2) The peptides were screened for antibacterial activity against two strains of Gram-positive and two strains of Gram-negative bacteria; Corynebacterium glutamicum (Cg, ATCC 13032), Staphylococcus aureus (Sa, ATCC 9144), Pseudomonas aeruginosa (Pa, ATCC 27853) and Escherichia coli (Ec, ATCC 25922).
(§3) Cultures stored at −80° C. in glycerol were transferred to Müller-Hinton plates (MH, Difco, Lawrence, Kans., USA) and incubated for 24 h at 35° C. A few colonies of each bacterial strain were transferred to 5 ml liquid MH medium and left shaking at room temperature overnight at 600 rpm. Cultures of actively growing bacteria (20 μl) were inoculated in 5 ml MH medium and left shaking for 2 h at room temperature. The antibacterial assays were performed as previously described by Sperstad, S. V., et al. ((2009) Mol. Immunol. 46, 2604-2612) with the following exception: bacterial cultures were diluted with medium to 2.5-3×10^4 bacteria/ml concentrations. An aliquot of 50 μl (1250-1500 bacterial cells) was added to each well in 96-well Nunclon™ microtiter plates (Nagle Nunc Int., Denmark) preloaded with peptide solution (50 μl).
(§4) The microtiter plates were incubated for 24 h at 35° C. with optical density recorded every hour using an Envision 2103 multilabel reader, controlled by a Wallac Envision manager (PerkinElmer, Conn., USA). Minimum inhibitory concentration (MIC) was defined as a sample showing complete inhibition (as measured by optical density at 595 nm) compared to the negative (growth) controls, consisting of bacteria and water. Oxytetracycline (20 μM) served as a positive (inhibition) control.
(§5) The synthetic peptides were tested for antibacterial activity in concentrations ranging from 200 to 0.1 μM in two-fold dilutions. All tests were performed in triplicates.

[4] = system: Escherichia coli (Ec, ATCC 25922)
Procedure: as §2, §3, §4, §5

[5] = system: Pseudomonas aeruginosa (Pa, ATCC 27853)
Procedure: as §2, §3, §4, §5

[6] = system: Corynebacterium glutamicum (Cg, ATCC 13032)
Procedure: as §2, §3, §4, §5

[7] = system: Rhodotorula sp.; conditions: 24 h
Procedure: as §1

[8] = system: Candida albicans (ATCC 10231); conditions: ATCC 10231, 24 h
Procedure: as §1

[9] = system: Aureobasidium pullulans; conditions: 24 h
Procedure: as §1

Substance	haemolytic activity ([1]; at concentrations closer to the MIC-values)	Haemolysis (%) 25 μM [1] [%]	Haemolysis (%) 200 μM [1] [%]	Haemolysis (%) 200 μM ([1]; listed as lead peptide) [%]	antifungal MICs (range over the three fungi) [2] [µM]	MIC (μM) Sa ([3]; ATCC 9144) [µM]	MIC (μM) Sa ([3]; ATCC 9144, 24 h) [µM]	MIC (μM) Ec ([4]; ATCC 25922) [µM]	MIC (μM) Ec ([4]; ATCC 25922, 24 h) [µM]	MIC (μM) Pa ([5]; ATCC 27853) [µM]	MIC (μM) Pa ([5]; ATCC 27853, 24 h) [µM]	MIC (μM) Cg ([6]; ATCC 13032) [µM]	MIC (μM) Rhodotorula sp. [7] [µM]	MIC (μM) C. albicans [8] [µM]	MIC (μM) A. pullulans [9] [µM]	MIC (μM) Cg ([6]; ATCC 13032, 24 h) [µM]
GWWRRTVAKVRK-NH2 [HC(1-12)A8K12, GWWRRTVAKVRK-NH2]	negligible	2.4	25.1	25	1.6 to 6.3	6.3	25	6.3	6.3	6.3	3.1	0.4				
GWWRRTAAKVRK-NH2 [Peptide V7A, GWWRRTAAKVRK-NH2]		0.0	0.0				100		12.5		12.5		12.5	25	25	1.6
GWWRATVAKVRK-NH2 [Peptide R5A, GWWRATVAKVRK-NH2]		0.0	0.0				100		6.3		25		12.5	25	25	0.8
